Measured values taken from patent publication US20070298994A1, “Use of 3-Mercapto-3-Methyl-Hexan-1-Ol for Use as Malodour Standard” (SYMRISE GMBH & CO. KG, priority 2004, published 2007).
Like-named read-outs stand apart in the source and are kept apart here.

Assay: Raw material test against sweat odour (masking of malodour standard, assessor panel)
[1] = Table 1, 1 μl fragrance + 5 μl 3-mercapto-3-methyl-hexan-1-ol (0.1% in DPG) in 7 l air, 15 h at approx. 20° C., scale 1 to 9, malodour standard mixture = 6, mean of at least 8 assessors
[2] = Table 3 (adequate malodour-reducing action but significant increase in intensity), 1 μl fragrance + 5 μl 3-mercapto-3-methyl-hexan-1-ol (0.1% in DPG) in 7 l air, 15 h, scale 1 to 9, standard = 6
[3] = Table 2 (raw materials without adequate malodour-reducing action), 1 μl fragrance + 5 μl 3-mercapto-3-methyl-hexan-1-ol (0.1% in DPG) in 7 l air, 15 h, scale 1 to 9, standard = 6
[4] = Table 4, tests with the mixtures (Example 2), according to the raw material test method
[5] = prior-art fragrances examined by the applicant

SMILES	Increase In intensity [1]	Odour reduction value [1]	further results
CC(=O)OC(C)(C)C1CC=C(C)CC1 (stereo not drawn) [ACETIC ACID-ALPHA-TERPINYL ESTER]	−0.3	4.0	
CC(=O)O[C@H]1CC[C@H](C(C)(C)C)CC1 [ACETIC-TRANS-4-TERT.-BUTYL CYCLOHEXYL ESTER]	0.2	5.1	
C=CCOC(=O)CCCCC [ALLYL CAPRONATE]	1.0	3.0	
C=CCOC(=O)CCCCCC [ALLYL HEPTYLATE]	−0.5	3.0	
C=CC(C)(C#N)Cc1ccccc1 (stereo not drawn) [ALPHA-ETHENYL-ALPHA-METHYL-BENZENE PROPANE NITRILE]	1.0	4.2	
Cc1cccc(CC(C)(C)C(C)O)c1 (stereo not drawn) [ALPHA.BETA.BETA.3-TETRAMETHYL-BENZENE PROPANOL]	0.2	4.6	
CCCCCOC(=O)c1ccccc1O [AMYL SALICYLATE, reference compound]			Increase in intensity [2]: 2.4; Malodour-reduction value [2]: 3.6
CC(=O)OCc1ccccc1 [BENZYL ACETATE, reference compound]			Increase in intensity [3]: 0.4; Malodour reduction value [3]: 2.5
OCc1ccccc1 [BENZYL ALCOHOL, reference compound]			Increase in intensity [3]: 2.0; Malodour reduction value [3]: −2.0
CCOC(=O)OC1C(C)CCC(C)C1C (stereo not drawn) [CARBONIC ACID-ETHYL-2.3.6-TRIMETHYL CYCLOHEXYL ESTER]	1.0	4.6	
CC(C)=CCCC(C)CCO (stereo not drawn) [CITRONELLOL, reference compound]			Increase in intensity [3]: −0.2; Malodour reduction value [3]: 2.2
C/C=C/C(=O)OC(C)C1CCCCC1 (stereo not drawn) [CROTONIC ACID-1-CYCLOHEXYL ETHYL ESTER]			Increase In intensity: 0.8; Odour reduction value: 3.7
C/C=C/C(=O)OC(C)CC(C)C (stereo not drawn) [CROTONIC ACID-4-METHYL-2-[…]]	−0.5	3.5	
COC1(OC)CCCCCCCCCCC1 [CYCLODODECANONE DIMETHYL KETAL]	1.5	4.0	
COC1CCCCCCCCCCC1 [CYCLODODECYL METHYL ETHER]	0.7	3.1	
CCCCCCCCCC=O [DECANAL]	0.2	3.0	
CCOC(=O)c1ccccc1C(=O)OCC [DEP, diethyl phthalate, reference compound]			Increase in intensity [4]: −0.1; Malodour reduction value [4]: 0.0; effect on the intensity of the bad odour (solvents): no effect; effect on the total intensity (solvents): no effect
CCCCCCCCCCCC=O [DODECANAL, reference compound]			Increase in intensity [3]: 2.0; Malodour reduction value [3]: 2.0
C=CCc1ccc(O)c(OC)c1 [EUGENOL]	0.7	6.0	
CC(=O)/C(C)=C/C1C(C)=CCCC1(C)C (stereo not drawn) [GAMMA-METHYLICONE, reference compound]			Increase in intensity [2]: 2.1; Malodour-reduction value [2]: 4.0
CC(=O)OC/C=C(\C)CCC=C(C)C [GERANYL ACETATE, reference compound]			Increase in intensity [2]: 2.2; Malodour-reduction value [2]: 3.0
CC(C)=CCCC(C)=CC#N [GERANYL NITRILE, 3,7-dimethyl-2,6-octadiene-1-nitrile, reference compound]			Increase in intensity [2]: 3.0; Malodour-reduction value [2]: 5.0; intrinsic odour / perfumistic impression (in words) [5]: strong intrinsic odour; reduction in the bad odour based on 3-mercapto-3-methyl-hexan-1-ol (in words) [5]: does show a reduction in the bad odour
CC(C)COC(=O)C=Cc1ccccc1 [ISOBUTYL CINNAMATE]	0.8	3.1	
C=CC(C)(O)CCC=C(C)C (stereo not drawn) [LINALOOL]	1.0	5.0	
CC(=O)OC1CC(C)CCC1C(C)C (stereo not drawn) [MENTHYL ACETATE, reference compound]			Increase in intensity [2]: 2.9; Malodour-reduction value [2]: 4.4
